Experiments:
Assay in all cases: combination Emax (second highest fraction inhibited in the dose matrix, 72 h); higher = more inhibition; extreme values may be limits of the assay
[1] = system: CAL-33 (Oral Cavity Carcinoma)
Method in brief: (§1)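 After 24 hours at 37°C and 5% CO2 in 1536-well plates, cells in DMEM/F12 or RPMI plus 10% FBS received two-drug dose matrices for 72 hours. Viability came from CellTiter-Glo 2.0 luminescence and was scaled as inhibition, anchored at 0 by vehicle wells and at 1 by blank wells. Combination Emax is taken as the second-highest inhibition in the matrix, and Bliss excess as the observed combination effect less EA + EB − EA·EB, with EA and EB the single-agent effects.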

NCI-H2722 (Mesothelioma) = system: NCI-H2722 (Mesothelioma)
Method in brief: as §1

[2] = system: KMRC-20 (Kidney Carcinoma)
Method in brief: as §1

GAMG (Glioblastoma) = system: GAMG (Glioblastoma)
Method in brief: as §1

[3] = system: KYAE-1 (Esophageal Adenocarcinoma)
Method in brief: as §1

[4] = system: SW1710 (Bladder Carcinoma)
Method in brief: as §1

[5] = system: Detroit562 (Head and Neck Carcinoma)
Method in brief: as §1

MPP-89 (Mesothelioma) = system: MPP-89 (Mesothelioma)
Method in brief: as §1

KS-1 (Glioblastoma) = system: KS-1 (Glioblastoma)
Method in brief: as §1

[6] = system: LCLC-97TM1 (Non-Small Cell Lung Carcinoma)
Method in brief: as §1

[7] = system: OV-56 (Ovarian Carcinoma)
Method in brief: as §1

[8] = system: BE-13 (T-Lymphoblastic Leukemia)
Method in brief: as §1

[9] = system: YAPC (Pancreatic Carcinoma)
Method in brief: as §1

NCI-H2052 (Mesothelioma) = system: NCI-H2052 (Mesothelioma)
Method in brief: as §1

[10] = system: NCI-H1568 (Lung Adenocarcinoma)
Method in brief: as §1

BE2-M17 (Neuroblastoma) = system: BE2-M17 (Neuroblastoma)
Method in brief: as §1

[11] = system: NCI-H524 (Small Cell Lung Carcinoma)
Method in brief: as §1

[12] = system: HuH-7 (Hepatocellular Carcinoma)
Method in brief: as §1

[13] = system: NCI-H209 (Small Cell Lung Carcinoma)
Method in brief: as §1

[14] = system: SNU-16 (Gastric Carcinoma)
Method in brief: as §1

SMILES	combination Emax [1]	combination Emax (NCI-H2722 (Mesothelioma))	combination Emax [2]	combination Emax (GAMG (Glioblastoma))	combination Emax [3]	combination Emax [4]	combination Emax [5]	combination Emax (MPP-89 (Mesothelioma))	combination Emax (KS-1 (Glioblastoma))	combination Emax [6]	combination Emax [7]	combination Emax [8]	combination Emax [9]	combination Emax (NCI-H2052 (Mesothelioma))	combination Emax [10]	combination Emax (BE2-M17 (Neuroblastoma))	combination Emax [11]	combination Emax [12]	combination Emax [13]	combination Emax [14]
C=CCn1c(=O)c2cnc(Nc3ccc(N4CCN(C)CC4)cc3)nc2n1-c1cccc(C(C)(C)O)n1 [AZD1775] + C1CN(CCC1(C(=O)N[C@@H](CCO)C2=CC=C(C=C2)Cl)N)C3=NC=NC4=C3C=CN4 [Capivasertib] (first compound max 3 µM, partner max 3 µM)	0.929	0.262	0.711	0.829	0.579	0.475	0.92	0.685	0.589	0.793	0.389	0.968	0.591	0.518	0.765	0.906	0.847	0.471	0.873	–
COc1cccc2c1C(=O)c1c(O)c3c(c(O)c1C2=O)C[C@@](O)(C(=O)CO)C[C@@H]3O[C@H]1C[C@H](N)[C@H](O)[C@H](C)O1 [Doxorubicin] + Cc1cc2ncnn2cc1Nc1ncc2c(n1)n(C1CCOCC1)c(=O)n2C [AZD7648] (first compound max 1 µM, 7x7, partner max 10 µM)	0.873	0.823	0.524	0.945	0.879	0.665	0.681	0.734	0.619	0.6	0.711	0.965	0.381	0.745	0.197	0.862	0.693	0.23	0.993	0.97
CC1(C)CCC(CN2CCN(c3ccc(C(=O)NS(=O)(=O)c4ccc(NCC5CCOCC5)c([N+](=O)[O-])c4)c(Oc4cnc5[nH]ccc5c4)c3)CC2)=C(c2ccc(Cl)cc2)C1 [Venetoclax] + C1CN(CCC1(C(=O)N[C@@H](CCO)C2=CC=C(C=C2)Cl)N)C3=NC=NC4=C3C=CN4 [Capivasertib] (first compound max 1 µM, 7x7, partner max 3 µM)	0.276	0.162	0.294	0.505	0.407	0.23	0.346	0.375	0.303	0.298	0.153	0.379	0.124	0.329	0.133	0.254	0.166	0.17	0.456	0.189
COc1cccc(OCCCN)c1-c1cc(Nc2cnc(C#N)cn2)n[nH]1 [Prexasertib] + C[C@@H]1COCCN1C2=NC(=NC(=C2)C3(CC3)[S@](=N)(=O)C)C4=C5C=CNC5=NC=C4 [AZD6738] (first compound max 1 µM, 7x7, partner max 10 µM)	0.916	0.304	0.881	0.874	0.573	0.771	0.918	0.724	0.581	0.941	0.916	0.967	0.555	0.537	0.526	0.994	0.998	0.34	0.959	1
C[C@@H]1COCCN1c1cc(C2([S@](C)(=N)=O)CC2)nc(-c2ccnc3[nH]ccc23)n1 [AZD6738] + O=C(c1cc(Cc2n[nH]c(=O)c3ccccc23)ccc1F)N1CCN(C(=O)C2CC2)CC1 [Olaparib] (first compound max 10 µM, 7x7, partner max 10 µM)	0.763	0.292	0.542	0.388	0.139	0.495	0.862	0.619	0.573	0.826	0.69	0.702	0.288	0.478	0.416	0.74	0.746	0.357	0.94	0.956
CC1(C)CCC(CN2CCN(c3ccc(C(=O)NS(=O)(=O)c4ccc(NCC5CCOCC5)c([N+](=O)[O-])c4)c(Oc4cnc5[nH]ccc5c4)c3)CC2)=C(c2ccc(Cl)cc2)C1 [Venetoclax] + CN(C)CCCOc1ccc(-c2ccc3ncc4c(c3c2)n(C2CCOCC2)c(=O)n4C)cn1 [AZD0156] (first compound max 1 µM, 7x7, partner max 1 µM)	0.178	0.175	0.201	0.273	0.115	0.239	0.212	0.408	0.224	0.105	0.183	0.612	0.175	0.235	0.319	0.238	0.321	0.26	0.528	0.152
CN(C)CCCOc1ccc(-c2ccc3ncc4c(c3c2)n(C2CCOCC2)c(=O)n4C)cn1 [AZD0156] + O=C(c1cc(Cc2n[nH]c(=O)c3ccccc23)ccc1F)N1CCN(C(=O)C2CC2)CC1 [Olaparib] (first compound max 3 µM, partner max 3 µM)	0.352	0.181	0.189	0.336	0.271	0.0777	0.435	0.235	0.197	0.109	0.0996	0.428	0.283	0.251	0.233	0.331	0.496	0.16	0.792	–
Cc1c2c(nn1C)CSCc1cc(n(C)n1)CSc1cc(c3ccccc3c1)OCCCc1c(C(=O)O)n(C)c3c-2c(Cl)ccc13 [AZD5991] + C1CN(CCC1(C(=O)N[C@@H](CCO)C2=CC=C(C=C2)Cl)N)C3=NC=NC4=C3C=CN4 [Capivasertib] (first compound max 1 µM, 7x7, partner max 3 µM)	0.347	0.173	0.223	0.477	0.334	0.256	0.325	0.268	0.338	0.32	0.169	0.38	0.149	0.265	0.191	0.966	0.452	0.208	0.36	0.996
Cc1c2c(nn1C)CSCc1cc(n(C)n1)CSc1cc(c3ccccc3c1)OCCCc1c(C(=O)O)n(C)c3c-2c(Cl)ccc13 [AZD5991] + CCN(CCO)CCCOc1ccc2c(Nc3cc(CC(=O)Nc4cccc(F)c4)[nH]n3)ncnc2c1 [AZD2811] (first compound max 1 µM, 7x7, partner max 1 µM)	0.911	0.29	0.312	0.534	0.296	0.228	0.951	0.248	0.286	0.722	0.2	0.929	0.238	0.265	0.306	0.905	1	0.219	0.967	0.996
CC1(C)CCC(CN2CCN(c3ccc(C(=O)NS(=O)(=O)c4ccc(NCC5CCOCC5)c([N+](=O)[O-])c4)c(Oc4cnc5[nH]ccc5c4)c3)CC2)=C(c2ccc(Cl)cc2)C1 [Venetoclax] + CCN(CCO)CCCOc1ccc2c(Nc3cc(CC(=O)Nc4cccc(F)c4)[nH]n3)ncnc2c1 [AZD2811] (first compound max 1 µM, 7x7, partner max 1 µM)	0.594	0.23	0.2	0.598	0.163	0.248	0.52	0.284	0.341	0.289	0.195	0.881	0.157	0.181	0.209	0.515	0.985	0.194	0.974	0.523
Cc1c2c(nn1C)CSCc1cc(n(C)n1)CSc1cc(c3ccccc3c1)OCCCc1c(C(=O)O)n(C)c3c-2c(Cl)ccc13 [AZD5991] + C[C@@H]1COCCN1C2=NC(=NC(=C2)C3(CC3)[S@](=N)(=O)C)C4=C5C=CNC5=NC=C4 [AZD6738] (first compound max 1 µM, 7x7, partner max 10 µM)	0.901	0.401	0.516	0.579	0.207	0.436	0.902	0.596	0.587	0.894	0.558	–	0.327	0.338	0.502	0.991	0.854	0.279	0.997	1
Cc1c2c(nn1C)CSCc1cc(n(C)n1)CSc1cc(c3ccccc3c1)OCCCc1c(C(=O)O)n(C)c3c-2c(Cl)ccc13 [AZD5991] + CC1(C)CCC(CN2CCN(c3ccc(C(=O)NS(=O)(=O)c4ccc(NCC5CCOCC5)c([N+](=O)[O-])c4)c(Oc4cnc5[nH]ccc5c4)c3)CC2)=C(c2ccc(Cl)cc2)C1 [Venetoclax] (first compound max 1 µM, 7x7, partner max 1 µM)	–	0.122	0.162	0.315	0.225	0.168	0.156	0.171	0.146	0.138	0.173	0.916	0.146	0.229	0.248	0.915	0.629	0.306	0.996	0.994

Source: the supplement of paper PMC11061612
